The values below come from patent publication US11548891B1, “Quaternary ammonium salts of phenanthroindolizidine and phenanthroquinolizidine alkaloids as hypoxia-targeted anticancer agents” (BATTERJEE MEDICAL COLLEGE, priority 2022, dated 2023).

The structures appear in SMILES notation. Read-outs that look alike come from different tables or passages of the source.

A short description of one data set: PBS (pH 7.4) solubility. Type of data set: physicochemical. As for the experimental part:
(§1) Water solubility, log D, and PAMPA-BBB were evaluated using the protocols as described in Omran, et. al. [Omran, Z., et. al., Chem. Pharm. Bull., 2019, 67, 1208-1210, incorporated herein by reference in its entirety].

Data set [1] is described as follows: BBB-Parallel Artificial Membrane Permeability Assay (BBB-PAMPA). Type of data set: in vitro ADME. As for the experimental part: The physicochemical properties of the new compounds were evaluated (Table 1). […] Consequently, these derivatives lost their BBB penetrability, as predicted by the BBB-Parallel Artificial Membrane Permeability Assay (BBB-PAMPA), whereas their parent alkaloids had free passage through the BBB.
as §1

The test system of the next data set is MRC5. As to the kind of experiment: Cytotoxicity under normoxia (MTT), MRC5. Type of data set: cell-based, human. Conditions: Homo sapiens, MRC5, read-out: IC50 MRC5. As for the experimental part:
(§2) The cytotoxicity of the compounds 5a-c and their parent alkaloids was evaluated by the 3-[4,5-dimethylthiazole-2-yl]-2,5-diphenyltetrazolium bromide (MTT) assay against 5 cancerous and 2 non-cancerous cell lines (Table 4).
(§3) The eight cell lines HEK293 (Human embryonic kidney 293), CHO-Kt (Chinese hamster ovary K1), MCF-7 cells (Human breast adenocarcinoma), HCT116 (human colorectal carcinoma), RKO (Human rectal carcinoma), SW480 (human colorectal carcinoma), H460 (Human lung cancer), and MRCS (Normal human fetal lung fibroblast), were obtained from the ATCC. The cell lines were routinely grown in alpha minimum essential medium (α-MEM) containing 5% fetal calf serum (FCS). The appropriate number of cells (HCT116=400 cells/well, H460 cells=600 cells/well) were seeded into 96-well plates under normoxic or hypoxic conditions. Cells were plated in 100 μL α-MEM containing 10% FCS, 10 mM D-Glucose and 0.2 mM 20-deoxycytidine. After incubation for 2 h, the compounds were added at the appropriate concentration and incubated for further 4 h. The cells were then washed three times with drug-free α-MEM (containing 5% FCS and pen/strep). The plates were then incubated for 5 days under normoxic conditions. The cells were stained with sulphorhodamine B to measure total cells as per the standard procedure described in Skehan, et. al. [Skehan, P., et. al., J. Natl. Cancer Inst., 1990, 82, 1107-1112, incorporated herein by reference in its entirety]. The IC50 was determined by interpolation as the compound concentration reducing staining to 50% of controls on the same plate as per the standard procedure described in Guise, et. al. [Guise, C. P., et. al., Biochem. Pharmacol., 2007, 74, 810-820, incorporated herein by reference in its entirety].

Data set [2] is described as follows: Mouse microsomal liver stability assay. The following applies: male, Balb/c, mouse, 2 μM, pH 7.4. As for the experimental part: Protoc. […] Microsomal incubations were carried out in 96-well plates in 5 aliquots of 40 μL each. […] Control incubations were performed by replacing the NADPH-cofactor system with PBS. The additional control incubations in PBS (with 3.3 mM MgCl2) without added microsomes were carried out in this study. […] The incubations were performed in duplicates. Five time points over 40 min had been analyzed. The reactions were stopped by adding 12 volumes of 90% acetonitrile-water to incubation aliquots, followed by protein sedimentation by centrifuging at 5500 rpm for 3 min. The supernatants were analyzed using LC-MS as mentioned above.

Another data set relates to HEK293. The data set is described as follows: Cytotoxicity under normoxia (MTT), HEK293. The data set is classed as cell-based, Human. The following applies: Homo sapiens, HEK293, read-out: IC50 HEK293. As for the experimental part: as §2, §3
The subject of the next data set is RKO. The data set is described as follows: Cytotoxicity under normoxia (MTT), RKO. Type of data set: cell-based, Human. Conditions: Homo sapiens, RKO, read-out: IC50 RKO. As for the experimental part:
as §2, §3

The subject of another data set is CHO-K1. As to the kind of experiment: Cytotoxicity under normoxia (MTT), CHO-K1. The following applies: Cricetulus griseus, CHO-K1, read-out: IC50 CHO-K1. The data set is classed as cell-based, Chinese hamster. As for the experimental part:
as §2, §3

In another data set the test system is MCF7. As to the kind of experiment: Cytotoxicity under normoxia (MTT), MCF7. The data set is classed as cell-based, Human. Conditions: Homo sapiens, MCF7, read-out: IC50 MCF7. As for the experimental part:
as §2, §3

In the next data set the test system is H460. The data set is described as follows: Cytotoxicity under normoxia and hypoxia (anaerobic chamber), H460. The following applies: for IC50: Homo sapiens, NCI-H460, 4 h exposure. Type of data set: cell-based, Human. As for the experimental part: (§4) The ability of the designed prodrugs to liberate the active alkaloids in hypoxic tumors was evaluated by testing them under hypoxic conditions using an anaerobic chamber. The three prodrugs 5a-c and their parent alkaloids as well as the reference compounds PR-104A, the parent alcohol form of the phosphate pre-prodrug PR-104, and evofosfamide were tested using the HCT116 and H460 cell lines under both normoxic and hypoxic conditions (Table 5). The prodrugs were much less cytotoxic than the parent drugs, in agreement with the results using the other cell lines described above (see FIG. 6).
as §3

The test system of data set [3] is HCT116. The data set is described as follows: Cytotoxicity under normoxia and hypoxia (anaerobic chamber), HCT116. The data set is classed as cell-based, human. Conditions: for IC50: Homo sapiens, HCT-116, 4 h exposure. As for the experimental part: as §4, §3
The test system of the next data set is SW480. The data set is described as follows: Cytotoxicity under normoxia (MTT), SW480. Type of data set: cell-based, human. The following applies: Homo sapiens, SW480, read-out: IC50 SW480. As for the experimental part: as §2, §3
A short description of a further data set: LogD. The data set is classed as physicochemical. As for the experimental part: as §1
In data set [4] the test system is HCT116. As to the kind of experiment: Cytotoxicity under normoxia (MTT), HCT116. Type of data set: cell-based, human. The following applies: Homo sapiens, HCT-116, read-out: IC50 HCT116. As for the experimental part:
as §2, §3

For `COc1cc2c3c(c4cc(OC)c(OC)cc4c2cc1OC)C[N+]1(Cc2c([N+](=O)[O-])ncn2C)CCC[C@H]1C3.[Br-]` (stereo partly drawn) [Compound 5b, (13aS)-2,3,6,7-tetramethoxy-10-((1-methyl-4-nitro-1H-imidazol-5-yl)methyl)-10,11,12,13,13a, 14-hexahydro-9H-dibenzo[f,h]pyrrolo[1,2-b]isoquinolin-10-ium bromide], the melting point was 165 to 167 °C. The “PBS (pH 7.4) Solubility μM Mean ± SE” value in the data set “PBS (pH 7.4) solubility” came out at 162 ± 3 μM. In data set [1], the “Permeability (Papp) Log [10^−6 cm/s] Mean ± SE” value is under −7 Log [10^−6 cm/s]. In addition, the IC50 with MRC5 is 3.31 ± 0.163 µM. Moreover, the “Kel, min^−1 (elimination rate constant)” value in data set [2] turned out to be 0.002 ± 0 min⁻¹. Besides, the “compound metabolized into the parent drug” value in data set [2] (microsomes) is given as “less than 1%”. In the data set on HEK293, the IC50 came to 0.95 ± 0.174 µM. For the same molecule, the IC50 with RKO turned out to be 4.06 ± 0.181 µM. Further, in the data set with CHO-K1, the IC50 turned out to be 3.49 ± 0.843 µM. The IC50 in the data set with MCF7 came out at 1.5 ± 0.128 µM. In the data set on H460, the “HCR (Hypoxia Cytotoxicity Ratio = normoxic IC50/hypoxic IC50)” value was 24. Besides, in the data set on H460 (H460, normoxia), the “DR (Deactivation Ratio = IC50 (prodrug)/IC50 (parent drug))” value worked out at 719. Also, the IC50 in the data set on H460 (H460, hypoxia, read-out: IC50 (Hypoxia)) was 3.22 µM. Also, in the data set with H460 (H460, normoxia, read-out: IC50 (Normoxia)), the IC50 came out at 77.6 µM. The “HCR (Hypoxia Cytotoxicity Ratio = normoxic IC50/hypoxic IC50)” value in the data set with HCT116 [3] is 11.3. Also, the “DR (Deactivation Ratio = IC50 (prodrug)/IC50 (parent drug))” value in the data set on HCT116 [3] (HTC 116, normoxia) worked out at 689. In addition, the IC50 with HCT116 [3] (HTC 116, hypoxia, read-out: IC50 (Hypoxia)) amounted to 1.46 µM. In addition, the IC50 in the data set with HCT116 [3] (HTC 116, normoxia, read-out: IC50 (Normoxia)) is 4.49 µM. Further, the IC50 in the data set with SW480 was found to be 7.25 ± 0.49 µM. Moreover, the “LogD Mean ± SE” value in “LogD” is listed as 0.38 ± 0.04. The IC50 with HCT116 [4] is 3.3 ± 1.56 µM.
